# Experimental data from patent US10533015B1, “Opioid receptor antagonist prodrugs” (Nirsum Laboratories, Inc., priority 2019, dated 2020).
# Read-outs that look alike come from different tables or passages of the source.
# Assays:
# [1] = Polymorph screening of solid state drug substances; conditions: for Dry method and appearance: after stirring 50 °C 72 hours, dried solid; for XRPD results (Dried): dried solid after 50 °C 72 hours; for Visual observation 50° C. / Visual observation RT: target conc. 100 mg/ml
# [2] = Plasma stability assay, rat plasma; format: in vitro ADME; conditions: 10 μM, 37° C.
# Method: Plasma stability determination of the test compounds in rat, dog, cynomolgus monkey and human plasma is performed using HPLC-MS. For rat, incubations are carried out in 96-well polypropylene plates in 5 aliquots of 70 μL each (one for each time point). […] Five time points are analyzed (0, 15, 120, 480 and 1440 min). For dog, monkey and human, test compounds (2 μM, final solvent concentration 1%) were also incubated at 37° C. and analyzed at five time points (0, 10, 30, 60 and 120 min). All incubations are performed in duplicates. The samples are analyzed by HPLC-MS. The percentage of parent compound remaining after incubation in plasma is determined.
# [3] = heating temp. 40 °C, obs. temp. 40 °C
# [4] = heating temp. 60 °C, obs. temp. 40 °C
# [5] = heating temp. 60 °C, obs. temp. 25 °C
compound,measurement,setting,value
"C=C1CC[C@@]2(O)C3Cc4ccc(OC(=O)CCCCCCCCCCCCCCCCCCC)c5c4[C@@]2(CCN3CC2CC2)[C@H]1O5 [Compound 16, (4aS,7aS,12bS)-3-(cyclopropylmethyl)-4a-hydroxy-7-methylene-2,3,4,4a,5,6,7,7a-octahydro-1H-4,12-methanobenzofuro[3,2-e]isoquinolin-9-yl icosanoate]",Approximate Solubility (mg/mL) in Excipient: Cottonseed oil,[3],57 to 67 mg/mL
same,Approximate Solubility (mg/mL) in Excipient: Cottonseed oil,[4],201 to 403 mg/mL
same,Approximate Solubility (mg/mL) in Excipient: Ethanol,[3],<25 mg/mL
same,Approximate Solubility (mg/mL) in Excipient: Sesame oil,[3],68 to 81 mg/mL
same,Approximate Solubility (mg/mL) in Excipient: Sesame oil,[4],202 to 404 mg/mL
same,Dry method and appearance,[1]; Acetone,Evaporation/white powder
same,XRPD results (Dried),[1]; Acetone,Pattern A
same,Visual observation 50° C.,[1]; Acetone,Clear
same,Visual observation RT,[1]; Acetone,Slurry
same,Dry method and appearance,[1]; EtOAc,Evaporation/white powder
same,XRPD results (Dried),[1]; EtOAc,Pattern A
same,Visual observation 50° C.,[1]; EtOAc,Clear
same,Visual observation RT,[1]; EtOAc,Slurry
same,Dry method and appearance,[1]; Heptane,Centrifugation/white powder
same,XRPD results (Dried),[1]; Heptane,Pattern A
same,Visual observation 50° C.,[1]; Heptane,Slurry
same,Visual observation RT,[1]; Heptane,Slurry
same,Dry method and appearance,[1]; Isopropanol,Centrifugation/white powder
same,XRPD results (Dried),[1]; Isopropanol,Pattern A
same,Visual observation 50° C.,[1]; Isopropanol,Slurry
same,Visual observation RT,[1]; Isopropanol,Slurry
same,Dry method and appearance,[1]; MTBE,Evaporation/white powder
same,XRPD results (Dried),[1]; MTBE,Pattern A
same,Visual observation 50° C.,[1]; MTBE,Clear
same,Visual observation RT,[1]; MTBE,Clear
"C=C1CC[C@@]2(O)C3Cc4ccc(OC(=O)OCCCCCCCC)c5c4[C@@]2(CCN3CC2CC2)[C@H]1O5 [Compound 17, (4aS,7aS,12bS)-3-(cyclopropylmethyl)-4a-hydroxy-7-methylene-2,3,4,4a,5,6,7,7a-octahydro-1H-4,12-methanobenzofuro[3,2-e]isoquinolin-9-yl octyl carbonate]",% remaining at time point,[2]; 0 min,100%
same,% remaining at time point,[2]; 15 min,0%
same,% remaining at time point,[2]; 120 min,0%
same,% remaining at time point,[2]; 480 min,0%
same,% remaining at time point,[2]; 1440 min,0%
"C=C1CC[C@@]2(O)C3Cc4ccc(OC(=O)OCCCCCCCCCC)c5c4[C@@]2(CCN3CC2CC2)[C@H]1O5 [Compound 18, (4aS,7aS,12bS)-3-(cyclopropylmethyl)-4a-hydroxy-7-methylene-2,3,4,4a,5,6,7,7a-octahydro-1H-4,12-methanobenzofuro[3,2-e]isoquinolin-9-yl decyl carbonate]",Approximate Solubility (mg/mL) in Excipient: Cottonseed oil,[3],>403 mg/mL
same,Approximate Solubility (mg/mL) in Excipient: Cottonseed oil,[5],>400 mg/mL
same,Approximate Solubility (mg/mL) in Excipient: Ethanol,[3],>209 mg/mL
same,Approximate Solubility (mg/mL) in Excipient: Sesame oil,[3],>403 mg/mL
same,Approximate Solubility (mg/mL) in Excipient: Sesame oil,[5],>402 mg/mL
same,Equilibrium solubility (mg/mL) Water,[3],<0.0002 mg/mL
same,% remaining at time point,[2]; 0 min,100%
same,% remaining at time point,[2]; 15 min,0.6%
same,% remaining at time point,[2]; 120 min,0.3%
same,% remaining at time point,[2]; 480 min,0.1%
same,% remaining at time point,[2]; 1440 min,0%
"CCCCCCCCOC(=O)Oc1ccc2c3c1O[C@H]1C(=O)CC[C@@]4(O)C(C2)N(CC2CC2)CC[C@]314 [Compound 23, (4aS,7aR,12bS)-3-(cyclopropylmethyl)-4a-hydroxy-7-oxo-2,3,4,4a,5,6,7,7a-octahydro-1H-4,12-methanobenzofuro[3,2-e]isoquinolin-9-yl octyl carbonate]",% remaining at time point,[2]; 0 min,100%
same,% remaining at time point,[2]; 15 min,0%
same,% remaining at time point,[2]; 120 min,0%
same,% remaining at time point,[2]; 480 min,0%
same,% remaining at time point,[2]; 1440 min,0%
"C=C1CC[C@@]2(O)C3Cc4ccc(OCOC(=O)OCCCCCCCCCCCCCC)c5c4[C@@]2(CCN3CC2CC2)[C@H]1O5 [Compound 25, (((4aS,7aS,12bS)-3-(cyclopropylmethyl)-4a-hydroxy-7-methylene-2,3,4,4a,5,6,7,7a-octahydro-1H-4,12-methanobenzofuro[3,2-e]isoquinolin-9-yl)oxy)methyl tetradecyl carbonate]",Approximate Solubility (mg/mL) in Excipient: Cottonseed oil,[5],>414 mg/mL
same,Equilibrium solubility (mg/mL) Water,[3],<0.001 mg/mL
same,% remaining at time point,[2]; 0 min,100%
same,% remaining at time point,[2]; 15 min,82.6%
same,% remaining at time point,[2]; 120 min,69.3%
same,% remaining at time point,[2]; 480 min,62.2%
same,% remaining at time point,[2]; 1440 min,51.7%
"CCCCCCCC/C=C\CCCCCCCC(=O)Oc1ccc2c3c1O[C@H]1C(=O)CC[C@@]4(O)C(C2)N(CC2CC2)CC[C@]314 [Compound 41, (4aS,7aR,12bS)-3-(cyclopropylmethyl)-4a-hydroxy-7-oxo-2,3,4,4a,5,6,7,7a-octahydro-1H-4,12-methanobenzofuro[3,2-e]isoquinolin-9-yl oleate]",Approximate Solubility (mg/mL) in Excipient: Cottonseed oil,[3],>407 mg/mL
same,Approximate Solubility (mg/mL) in Excipient: Cottonseed oil,[5],<50 mg/mL
same,Approximate Solubility (mg/mL) in Excipient: Ethanol,[3],>201 mg/mL
same,Approximate Solubility (mg/mL) in Excipient: Sesame oil,[5],<50 mg/mL
"C=C1CC[C@@]2(O)C3Cc4ccc(OCOC(=O)CCCCCCCCCCC)c5c4[C@@]2(CCN3CC2CC2)[C@H]1O5 [Compound 44, (((4aS,7aS,12bS)-3-(cyclopropylmethyl)-4a-hydroxy-7-methylene-2,3,4,4a,5,6,7,7a-octahydro-1H-4,12-methanobenzofuro[3,2-e]isoquinolin-9-yl)oxy)methyl dodecanoate]",Approximate Solubility (mg/mL) in Excipient: Cottonseed oil,[5],>407 mg/mL
same,Approximate Solubility (mg/mL) in Excipient: Sesame oil,[5],208 to 231 mg/mL
same,Equilibrium solubility (mg/mL) Water,[3],<0.001 mg/mL
"C=C1CC[C@@]2(O)C3Cc4ccc(OCOC(=O)CCCCCCCCCCCCCCC)c5c4[C@@]2(CCN3CC2CC2)[C@H]1O5 [Compound 46, (((4aS,7aS,12bS)-3-(cyclopropylmethyl)-4a-hydroxy-7-methylene-2,3,4,4a,5,6,7,7a-octahydro-1H-4,12-methanobenzofuro[3,2-e]isoquinolin-9-yl)oxy)methyl hexadecanoate]",Approximate Solubility (mg/mL) in Excipient: Cottonseed oil,[5],>395.5 mg/mL
same,Approximate Solubility (mg/mL) in Excipient: Sesame oil,[5],202 to 269 mg/mL
same,Equilibrium solubility (mg/mL) Water,[3],<0.001 mg/mL
"CCCCCCCCCCCCCCCCOC(=O)OCOc1ccc2c3c1O[C@H]1C(=O)CC[C@@]4(O)C(C2)N(CC2CC2)CC[C@]314 [Compound 47, (((4aS,7aR,12bS)-3-(cyclopropylmethyl)-4a-hydroxy-7-oxo-2,3,4,4a,5,6,7,7a-octahydro-1H-4,12-methanobenzofuro[3,2-e]isoquinolin-9-yl)oxy)methyl hexadecyl carbonate]",Approximate Solubility (mg/mL) in Excipient: Cottonseed oil,[5],>405.5 mg/mL
same,Equilibrium solubility (mg/mL) Water,[3],<0.001 mg/mL
"CCCCCCCCCCCC(=O)OCOc1ccc2c3c1O[C@H]1C(=O)CC[C@@]4(O)C(C2)N(CC2CC2)CC[C@]314 [Compound 48, (((4aS,7aR,12bS)-3-(cyclopropylmethyl)-4a-hydroxy-7-oxo-2,3,4,4a,5,6,7,7a-octahydro-1H-4,12-methanobenzofuro[3,2-e]isoquinolin-9-yl)oxy)methyl dodecanoate]",Approximate Solubility (mg/mL) in Excipient: Cottonseed oil,[5],>410.5 mg/mL
"CCCCCCCCCCCCCCCC(=O)OCOc1ccc2c3c1O[C@H]1C(=O)CC[C@@]4(O)C(C2)N(CC2CC2)CC[C@]314 [Compound 49, (((4aS,7aR,12bS)-3-(cyclopropylmethyl)-4a-hydroxy-7-oxo-2,3,4,4a,5,6,7,7a-octahydro-1H-4,12-methanobenzofuro[3,2-e]isoquinolin-9-yl)oxy)methyl hexadecanoate]",Approximate Solubility (mg/mL) in Excipient: Cottonseed oil,[5],<50 mg/mL
same,Approximate Solubility (mg/mL) in Excipient: Sesame oil,[5],<51 mg/mL
Enalapril maleate salt [reference compound],% remaining at time point,[2]; 0 min,100%
same,% remaining at time point,[2]; 15 min,44%
same,% remaining at time point,[2]; 120 min,2.9%
same,% remaining at time point,[2]; 480 min,8.2%
same,% remaining at time point,[2]; 1440 min,4.8%
